Two molecules from patent US20140105829A1, “THERAPEUTIC NANOEMULSION FORMULATION FOR THE TARGETED DELIVERY OF DOCETAXEL AND METHODS OF MAKING AND USING THE SAME” (Nemucore Medical Innovations, Inc., priority 2012, published 2014) can be followed below.

Data set [1] relates to subcutaneous SKOV3 tumors. Set-up: species or system Nu/Nu mice. The note with it: mouse, in vivo, iv. The text has this: Three female Nu/Nu mice (Charles River Laboratories, Cambridge, Mass.) each weighing approximately 20 g and bearing subcutaneous SKOV3 tumors (human ovary cancer cells, American Type Culture Collection (ATCC), Manassas, Va.) […], were used as test subjects. The first mouse was intravenously injected with gadopentetic acid containing a 0.072 mmol/kg dose of Gd-DTPA-PE (Magnevist™). The second mouse was intravenously injected with a non-targeted Gd-labeled nanoemulsion formulation of the present disclosure containing a 0.072 mmol/kg dose of Gd-DTPA-PE. The third mouse was intravenously injected with a folate receptor-targeted Gd-labeled nanoemulsion formulation of the present disclosure containing a 0.072 mmol/kg dose of the gadolinium-based MRI contrasting agent Gd-DTPA-PE. All three mice were full body scanned and imaged using a Bruker Biospec 20/70 MRI machine over a period of 24 hr.

The nature of data set [2]: Dose range finding plasma pharmacokinetic study. Type of data set: in vivo. Conditions: CD-1 mice, iv; for AUC0-∞ / AUClast / Cl / Cmax / MRT / Tmax / Vd / t1/2: plasma docetaxel. The procedure: A dose range finding (DRF) study was conducted to determine the pharmacokinetic profile of folate receptor-targeted nanoemulsion formulations according to the disclosure administered to CD-1 mice at dose levels ranging from 1 mg/kg to 10 mg/kg. […] Blood was collected at 5 min, 30 min, 1 hr, 2 hr, 4 hr, 6 hr, 8 hr, 12 hr, and 24 hr after injection. Docetaxel concentration in the plasma was measured using a liquid chromatography-mass spectrometer (LC-MS/MS).
Pharmacokinetic parameters were calculated by non-compartmental analysis using Phoenix WinNonlin 6.2 version.

The test system of the next data set is SKOV3 cells. Kind of data set: MTT cytotoxicity assay, SKOV3. The format is cell-based, human. The note with it: 72 hr treatment, mean±SD, n=8. The procedure: (§1) A tetrazolium (MTT) assay was performed, which measures the activity of cellular enzymes that reduces the MTT dye to insoluble formazan. SKOV3 and SKOV3TR cells were treated with corresponding test nanoemulsions or control solutions as indicated below in Table V. Polyethylenimine at 50 μg/ml was used as a positive control for cytotoxicity. […] After the completion of treatment, cells were incubated with MTT reagent (50 μg/well) for 2 hr, the resulting formazan crystals were dissolved in dimethyl sulfoxide ([…]) and measured at 570 nm in the Plate reader (Synergy HT, Biotek Instruments, Winooski, Vt.).
(§2) All IC50 values were obtained by analyzing the MTT assays results using Graphpad Prism 5 scientific data analysis software.
(Formazan colour is commonly taken as a measure of viable cells.)

A further data set relates to SKOV3TR cells. The experiment in a line: MTT cytotoxicity assay, SKOV3TR. Type of data set: cell-based, human. Conditions: 72 hr treatment, mean±SD, n=8, Pgp-expressing multidrug resistant cells. The protocol:
In order to determine if the nanoemulsion formulations according to the disclosure produce a cytotoxic effect, the following experiments were done on SKOV3 and SKOV3TR cells. SKOV3TR cells express P-glycoprotein (Pgp), which produces chemotherapeutic agent efflux out of the cell and is associated with multidrug resistant cancer cells.
as §1, §2

The mark [3] stands for this setting: 1 mg/kg docetaxel as folate receptor-targeted nanoemulsion formulation.
Setting [4] is: 5 mg/kg docetaxel as folate receptor-targeted nanoemulsion formulation.
[5] abbreviates: 10 mg/kg docetaxel as folate receptor-targeted nanoemulsion formulation.

Take `CNC[C@H](O)[C@@H](O)[C@H](O)[C@H](O)CO.CNC[C@H](O)[C@@H](O)[C@H](O)[C@H](O)CO.O=C([O-])CN(CCN(CC(=O)[O-])CC(=O)O)CCN(CC(=O)[O-])CC(=O)O.[Gd+3]` [Magnevist, gadopentetic acid]: the “time by which tumor signal cleared to near baseline” value in data set [1] was at most 6 h.

As usually defined, the Cmax is the maximum level reached in the sampled fluid or tissue. For orientation: MRT means a mean duration of stay, worked out from the concentration-time curve. Broadly, the Tmax is the time at which the peak concentration occurs. One may read the Vd as the apparent volume that relates the amount in the body to the concentration in plasma or blood. A higher Vd goes with wide distribution into tissue. As a reminder, the IC50 is the point on the concentration scale where inhibition reaches its midpoint. Take docetaxel [Docetaxel in solution]: in data set [2] (setting [3]), the “AUC0-∞” value turned out to be 475 ± 34 ng·h/mL, the “AUClast” value came out at 789 ± 667 ng·h/mL, the “Cl” value was determined as 35.17 ± 2.55 mL/min/kg and the “Cmax” value stood at 2125 ± 1181 ng/mL. In addition, in data set [2] (setting [3]), the mean residence time MRT is on record as 1.53 ± 0.3 h, the “Tmax” value was 4.98 min, the “Vd” value came to 13.275 ± 7.029 L/kg and the “t1/2” value worked out at 4.29 ± 2 h. Also, the “dose dependence of plasma docetaxel pharmacokinetics” value in data set [2] (1 mg/kg to 10 mg/kg, folate receptor-targeted nanoemulsion formulation) is listed as “linear pharmacokinetics from 1 mg/kg to 5 mg/kg”. Also, in data set [2] (setting [4]), the “AUC0-∞” value is 19095 ± 24050 ng·h/mL, the “AUClast” value stood at 19026 ± 24077 ng·h/mL, the “Cl” value turned out to be 15.4 ± 16.77 mL/min/kg and the “Cmax” value stood at 38267 ± 31757 ng/mL. In addition, in data set [2] (setting [4]), the “MRT” value is reported as 2.25 ± 0.5 h, the “Tmax” value stood at 4.98 min, the “Vd” value was determined as 9.074 ± 12.083 L/kg and the “t1/2” value is reported as 4.9 ± 2.6 h. In addition, in data set [2] (setting [5]), the “AUC0-∞” value turned out to be 16719 ± 28251 ng·h/mL, the “AUClast” value was found to be 16653 ± 28251 ng·h/mL, the “Cl” value was determined as 16 ± 12.5 mL/min/kg and the “Cmax” value came out at 52229 ± 28251 ng/mL. Further, in data set [2] (setting [5]), the “MRT” value is 2.6 ± 1 h, the “Tmax” value came to 4.98 min, the “Vd” value amounted to 5.801 ± 5.151 L/kg and the “t1/2” value is given as 3.7 ± 1 h. The IC50 in the data set with SKOV3 cells was determined as 1 ± 1.3 nM. In the data set on SKOV3TR cells, the IC50 stood at 27000 nM.
